Earlier results in patent US6653351B2, “Adjuvant chemotherapy for anaplastic gliomas” (priority 2001, dated 2003).
Structures can show the parent of a compound that is named as a salt.

Conditions: in vivo

Compound | crossing of the blood brain barrier
CC[C@]1(O)C[C@H]2CN(CCc3c([nH]c4ccccc34)[C@@](C(=O)OC)(c3cc4c(cc3OC)N(C=O)[C@H]3[C@@](O)(C(=O)OC)[C@H](OC(C)=O)[C@]5(CC)C=CCN6CC[C@]43[C@@H]65)C2)C1 [Vincristine, vincaleukoblastine, a 22-oxo-, sulfate (1:1) (salt)] | does not appear to cross the blood brain barrier
O=NN(CCCl)C(=O)NC1CCCCC1 [Lomustine, 1-(2-chloroethyl)-3-cyclohexyl-1-nitrosourea] | crosses the blood brain barrier
